According to patent US12414560B2, “Pesticidal compositions and related methods” (CJB Applied Technologies LLC, priority 2017, dated 2025):
“And” between values parts separate entries of the source, which are not always exact repeats. Identical values can stand only once.

Key:
[1] = system: resistant strain of Didymella sp. (gummy stem rot); assay: Petri dish test (zone of inhibition), radial growth, resistant strain of Didymella sp.; type: cell-based
Protocol: (§1) Petri dish tests (i.e., zone of inhibition tests) were conducted to compare the efficacy of azoxystrobin against both sensitive/susceptible and resistant strains of Didymella sp. (gummy stem rot).
Petri dish tests (i.e., zone of inhibition tests) were conducted to compare four rates of three adjuvant compositions (ADJ1, AJD2, and ADJ3 (N-methylpyrrolidone)) on sensitive and resistant strains of Didymella at a fixed treatment rate with a FRAC Group 11 fungicide, azoxystrobin.
Petri dish tests (i.e., zone of inhibition tests) were conducted to compare the efficacy of azoxystrobin (a strobilurin, quinone outside inhibitor (QOI), and member of Fungicide Resistance Action Committee (FRAC) Group 11) against resistant strains of Didymella sp. (gummy stem rot). Various organic solvents (adjuvants) were utilized at varying rates (6 fluid ounces/acre or 3 ounces/acre).

[2] = system: sensitive/susceptible strain of Didymella sp. (gummy stem rot); assay: Petri dish test (zone of inhibition), radial growth, sensitive/susceptible strain of Didymella sp.; type: cell-based; details: for radial growth, 18 hours / radial growth, 24 hours / radial growth, 36 hours / radial growth, 48 hours / radial growth, 12 hours: sensitive strain
Protocol: as §1
Petri dish tests (i.e., zone of inhibition tests) were conducted to compare four rates of three adjuvant compositions (ADJ1, AJD2, and ADJ3 (N-methylpyrrolidone)) on sensitive and resistant strains of Didymella at a fixed treatment rate with a FRAC Group 11 fungicide, azoxystrobin. […]

[3] = system: natural strains of Didymella; assay: Watermelon Didymella (Gummy Stem Rot) field test, natural infection, disease severity rating; type: in vivo, Didymella on watermelon plants
Protocol: Watermelon plants were grown in normal field conditions subject to infection by natural strains of Didymella. The watermelons where then treated with: (a) a FRAC Group 11 fungicide, azoxystrobin alone; (b) ADJ1 alone; (c) azoxystrobin plus ADJ2; (d) azoxystrobin plus a typical commercial adjuvant (commercially available as Ad-Spray™); and (e) azoxystrobin plus chlorothalonil and commercial adjuvant. Disease severity ratings were taken and illustrated improved disease control of natural strains with ADJ1 compared to treatment with azoxystrobin alone or azoxystrobin plus commercial adjuvant, and equivalent control to azoxystrobin plus chlorothalonil and commercial adjuvant.

[4] = system: Morning Glory (MG); assay: Herbicide burndown testing, Morning Glory; details: in vivo; also: test concentration or dose not given here
Protocol: (§2) Burndown (BD) testing was conducted on Morning Glory (MG), Goosegrass (GG), Florida Beggarweed (FB) with an herbicide, Gramoxone® (paraquat—N,N′-dimethyl-4,4′-bipyridinium dichloride). Various amounts of Crop Oil Concentrate™ (COC) and an organic solvent adjuvant, Benzyl Acetate (BA), were utilized in conjunction with the herbicide. Crop Oil Concentrate™ (COC) is commonly used to enhance the deposition and spreading of herbicides on the leaf surface. The Crop Oil Concentrate™ (COC) included paraffinic petroleum oil, tall oil fatty acids and alkylphenol ethoxylates. The results are summarized in Table 20 and show a substantial increase in burndown rate when the organic solvent adjuvant is combined with an herbicide. The results also show a substantial increase in burndown rate compared to the combination of herbicide and Crop Oil Concentrate™ (COC).

[5] = system: Goosegrass (GG); assay: Herbicide burndown testing, Goosegrass; details: in vivo; also: test concentration or dose not given here
Protocol: as §2

[6] = system: resistant strains of Rhizoctonia solani (brown patch, stem rot, and/or root rot); assay: Petri dish test (zone of inhibition), resistant strains of Rhizoctonia solani; type: cell-based; details: organic solvent composition (where used) 6 fluid ounces/acre; for % Reduction in Radial Growth: 48 hours, vs untreated
Protocol: Petri dish tests (i.e., zone of inhibition tests) were conducted to compare the efficacy of tebuconazole (demethylation inhibitor, […], a triazole, and member of Fungicide Resistance Action Committee (FRAC) Group 3) against resistant strains of Rhizoctonia solani (brown patch, stem rot, and/or root rot). Various organic solvents (adjuvants) were utilized at 6 fluid ounces/acre and compared with just the active ingredient alone. The results are summarized in Table 19 and show the organic solvents provide a substantial resistant strain growth reduction compared to a FRAC Group 3 active ingredient utilized alone.

[7] = system: azoxystrobin resistant strain of Didymella; assay: Watermelon Didamella (Gummy Stem Rot) field test, inoculated plants, disease severity rating; type: in vivo, Didymella on watermelon plants; parameters: key: based on counts of active fungal infection sites on leaves; details: adjuvant rate 6 fl oz/acre
Protocol: Watermelon plants were inoculated with an azoxystrobin resistant strain of Didymella. The watermelon plants were then treated with: (a) a FRAC Group 11 fungicide, azoxystrobin alone; (b) azoxystrobin plus ADJ1; (c) azoxystrobin plus ADJ2; (d) azoxystrobin plus a typical commercial adjuvant (commercially available as Ad-Spray™); and (e) azoxystrobin plus chlorothalonil and commercial adjuvant (commercially available as Ad-Spray™). Disease severity ratings were taken and illustrated improved disease control of resistant strain with ADJ1 and ADJ2 compared to treatment with azoxystrobin alone, azoxystrobin plus commercial adjuvant, and azoxystrobin plus chlorothalonil and commercial adjuvant, especially at lower rates of azoxystrobin. Severity rating were based on multiple counts of active fungal infection sites on the leaves of the plants.

[8] = system: natural strains of Cercospora (known to be resistant to azoxystrobin); assay: Soybean Cercospora (Frog Eye Leaf Spot) field test, severity ratings; type: in vivo, Cercospora on soybean plants; details: azoxystrobin 0.5×
Protocol: Soybean plants were grown in normal field conditions subject to infection by natural strains of Cercospora (known to be resistant to azoxystrobin) then treated with: (a) a FRAC Group 11 fungicide, azoxystrobin alone; (b) azoxystrobin plus ADJ1; (c) azoxystrobin plus ADJ2; (d) azoxystrobin plus a typical commercial adjuvant (commercially available as Preference®). Disease severity ratings were taken and illustrated improved disease control with ADJ1 and ADJ2 compared to treatment with azoxystrobin alone or azoxystrobin plus commercial adjuvant. Duncan Multiple Range treatment of the data (indicated by “a,” “b,” “c,”, etc.) confirmed statistically valid different between the treatment results.

[9] = ADJ1 0.25× (adjuvant rate 4 fl oz/acre), Quadris 0
[10] = adjuvant 4 fl oz/acre (ADJ1 0.5×), Quadris 0
[11] = adjuvant 6 fl oz/acre ([…]), Quadris 0
[12] = adjuvant 8 fl oz/acre (1×), Quadris 0
[13] = azoxystrobin 0, additive alone (additive rate 0)
[14] = adjuvant 2 fl oz/acre (0.25×), Quadris 0
[15] = adjuvant 4 fl oz/acre (0.5×), Quadris 0
[16] = adjuvant 8 fl oz/acre (ADJ1 1×), Quadris 0
[17] = azoxystrobin 0, adjuvant only 6 fl oz/acre
[18] = azoxystrobin 5.5 fl oz/acre, no additive
[19] = azoxystrobin 11 fl oz/acre, no additive
[20] = azoxystrobin 16 fl oz/acre, no additive
[21] = azoxystrobin 22 fl oz/acre, no additive
[22] = azoxystrobin application rate 5.5
[23] = azoxystrobin application rate 11
[24] = azoxystrobin application rate 22
[25] = azoxystrobin 5.5 fl oz/acre, adjuvant rate 6 fl oz/acre
[26] = azoxystrobin 11 fl oz/acre, adjuvant rate 6 fl oz/acre

CC(=O)OCc1ccccc1 [ADJ1, benzyl acetate]
radial growth, 18 hours [1, 9]: 20.6 cm
radial growth, 24 hours [1, 9]: 30.2 cm
radial growth, 48 hours [1, 9]: 51.2 cm
radial growth, 18 hours [1, 10]: 22.6 cm
radial growth, 24 hours [1, 10]: 28.5 cm
radial growth, 48 hours [1, 10]: 53.9 cm
radial growth, 18 hours [1, 11]: 18.9 cm
radial growth, 24 hours [1, 11]: 23.4 cm
radial growth, 48 hours [1, 11]: 45.9 cm
radial growth, 18 hours [1, 12]: 16.7 cm
radial growth, 24 hours [1, 12]: 10.9 cm
radial growth, 48 hours [1, 12]: 44.4 cm
radial growth, 12 hours [1, 13]: 25 cm
radial growth, 24 hours [1, 13]: 30 cm
growth reduction, in words ([1]; text of Example 2): some efficacy but not at a commercial level control
radial growth, 18 hours [2, 14]: 19.9 cm
radial growth, 24 hours [2, 14]: 24.9 cm
radial growth, 36 hours [2, 14]: 39.3 cm
radial growth, 48 hours [2, 14]: 47.9 cm
radial growth, 18 hours [2, 15]: 17 cm
radial growth, 24 hours [2, 15]: 23.7 cm
radial growth, 36 hours [2, 15]: 32.3 cm
radial growth, 48 hours [2, 15]: 46 cm
radial growth, 18 hours [2, 11]: 15.7 cm
radial growth, 24 hours [2, 11]: 26.1 cm
radial growth, 36 hours [2, 11]: 38.8 cm
radial growth, 48 hours [2, 11]: 48.1 cm
radial growth, 18 hours [2, 16]: 15.7 cm
radial growth, 24 hours [2, 16]: 21.3 cm
radial growth, 36 hours [2, 16]: 40.6 cm
radial growth, 48 hours [2, 16]: 50.1 cm
radial growth, 12 hours [2, 13]: 24 cm
radial growth, 24 hours [2, 13]: 41.1 cm
radial growth, 36 hours [2, 13]: 54 cm
control compared to azoxystrobin alone, in words ([2]; susceptible strain, equivalent of 2 oz/acre of ADJ1): comparable control
disease reduction, in words ([3]; ADJ1 only): Some disease reduction
disease severity, Fourth Week Rating [3, 17]: 48.7
disease severity, One Week Rating [3, 17]: 1.1
disease severity, Third Week Rating [3, 17]: 38.9
disease severity, Two Week Rating [3, 17]: 8

CN1CCCC1=O [ADJ3, N-methylpyrrolidone]
radial growth, 12 hours [1, 13]: 27 cm
radial growth, 24 hours [1, 13]: 39 cm
radial growth, 12 hours [2, 13]: 22.8 cm
radial growth, 24 hours [2, 13]: 41 cm
radial growth, 36 hours [2, 13]: 54.1 cm

C[n+]1ccc(-c2cc[n+](C)cc2)cc1 [Paraquat]
BD (MG) (%) [4]: 51% and 50% and 81%
BD (GG) (%) [5]: 72% and 60% and 100%

CC(C)(C)C(O)(CCc1ccc(Cl)cc1)Cn1cncn1 (stereo not shown) [Tebuconazole]
Radial growth (cm) at 48 hours ([6]; Tebuconazole 2 oz/acre): 10.72 cm
% Reduction in Radial Growth ([6]; Tebuconazole 2 oz/acre): 32%
Radial growth (cm) at 48 hours ([6]; Tebuconazole 4 oz/acre): 7.8 cm
% Reduction in Radial Growth ([6]; Tebuconazole 4 oz/acre): 50%

CO/C=C(/C(=O)OC)c1ccccc1Oc1cc(Oc2ccccc2C#N)ncn1 [azoxystrobin]
radial growth, 12 hours [1, 18]: 31 cm
radial growth, 24 hours [1, 18]: 48 cm
radial growth, 12 hours [1, 19]: 30 cm
radial growth, 24 hours [1, 19]: 48 cm
radial growth, 12 hours [1, 20]: 29 cm
radial growth, 24 hours [1, 20]: 47 cm
radial growth, 12 hours [1, 21]: 22 cm
radial growth, 24 hours [1, 21]: 28 cm
radial growth, 12 hours [2, 18]: 15.3 cm
radial growth, 24 hours [2, 18]: 24.9 cm
radial growth, 36 hours [2, 18]: 34.3 cm
radial growth, 12 hours [2, 19]: 12.5 cm
radial growth, 24 hours [2, 19]: 16.9 cm
radial growth, 36 hours [2, 19]: 23.6 cm
radial growth, 12 hours [2, 20]: 13.4 cm
radial growth, 24 hours [2, 20]: 20 cm
radial growth, 36 hours [2, 20]: 28 cm
radial growth, 12 hours [2, 21]: 15.8 cm
radial growth, 24 hours [2, 21]: 22.9 cm
radial growth, 36 hours [2, 21]: 31.9 cm
disease severity, Fourth Week Rating [7, 22]: 82.8
disease severity, One Week Rating [7, 22]: 9.2
disease severity, Third Week Rating [7, 22]: 63.3
disease severity, Two Week Rating [7, 22]: 16.9
disease severity, Fourth Week Rating [7, 23]: 65.7
disease severity, One Week Rating [7, 23]: 13.3
disease severity, Third Week Rating [7, 23]: 42
disease severity, Two Week Rating [7, 23]: 16.7
disease severity, Fourth Week Rating [7, 24]: 16.3
disease severity, One Week Rating [7, 24]: 1.1
disease severity, Third Week Rating [7, 24]: 4.8
disease severity, Two Week Rating [7, 24]: 0.2
disease severity, Fourth Week Rating [3, 25]: 80.8
disease severity, One Week Rating [3, 25]: 2.1
disease severity, Third Week Rating [3, 25]: 59.4
disease severity, Two Week Rating [3, 25]: 6.6
disease severity, Fourth Week Rating [3, 26]: 76.8
disease severity, One Week Rating [3, 26]: 1.1
disease severity, Third Week Rating [3, 26]: 49.5
disease severity, Two Week Rating [3, 26]: 0
Severity Ratings, August 31/Upper leaf [8]: 10.3
Severity Ratings, September 7/bottom leaf [8]: 35.5
Severity Ratings, September 7/higher Leaf [8]: 16.3
Severity Ratings, September 7/middle leaf [8]: 3.2
Severity Ratings, September 13/bottom leaf [8]: 18
Severity Ratings, September 20/higher leaf [8]: 11.3
